For the assay, the target named is Solute carrier family 15 member 2 (Homo sapiens) (UniProt Q16348). Description: PEPT2 transporter activation by peptide substrates – membrane potential dye, HEK-293 overexpressing cells, pH 6.8/7.4, dose response (AID 1794819). The following applies: HEK-293 SLC15A2 OE, FLIPR membrane potential dye, as substrate.

pEC50: −log10 of the molar value. Non-standard residues stand in square brackets, D forms with d. Residues, ends and D or L forms follow the SMILES beside them. Sar = CNCC(=O)O

Sequence of Solute carrier family 15 member 2 (Homo sapiens) (Q16348 whole entry, looked up): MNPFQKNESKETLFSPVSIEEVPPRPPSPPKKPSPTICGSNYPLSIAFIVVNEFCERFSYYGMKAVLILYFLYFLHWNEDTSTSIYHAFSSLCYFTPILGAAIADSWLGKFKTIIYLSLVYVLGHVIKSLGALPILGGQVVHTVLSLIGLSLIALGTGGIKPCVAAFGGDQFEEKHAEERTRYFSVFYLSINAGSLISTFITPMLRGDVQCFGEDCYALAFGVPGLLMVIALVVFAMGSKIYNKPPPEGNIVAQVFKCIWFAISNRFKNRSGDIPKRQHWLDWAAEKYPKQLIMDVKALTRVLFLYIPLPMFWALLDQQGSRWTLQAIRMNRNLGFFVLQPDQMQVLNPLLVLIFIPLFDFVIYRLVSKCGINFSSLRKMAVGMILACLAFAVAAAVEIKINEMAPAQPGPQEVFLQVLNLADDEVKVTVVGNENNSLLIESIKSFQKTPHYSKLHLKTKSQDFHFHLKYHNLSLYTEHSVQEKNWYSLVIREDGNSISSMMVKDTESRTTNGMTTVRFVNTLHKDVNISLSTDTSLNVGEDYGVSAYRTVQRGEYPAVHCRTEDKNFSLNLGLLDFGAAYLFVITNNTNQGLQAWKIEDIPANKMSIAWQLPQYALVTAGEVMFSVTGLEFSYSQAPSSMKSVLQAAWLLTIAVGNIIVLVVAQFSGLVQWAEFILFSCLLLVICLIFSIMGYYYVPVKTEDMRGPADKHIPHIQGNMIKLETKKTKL

As a reminder, the pEC50 is −log10 of the EC50, conventionally taken in molar units. As to `NCCC(=O)N[C@@H](Cc1cnc[nH]1)C(=O)O`, under “pH 6.8”, the pEC50 was 4.55.
In the case of `CN(CC(=O)O)C(=O)CN` (H-Gly-[Sar]-OH), the pEC50 (pH 6.8) is 4.41 and the pEC50 (pH 7.4) was 3.91.

These data come from PubChem BioAssay AID1794819.
